# According to patent US9034876B2, “Treatment of chronic inflammation with a 1,2,4-triazolo [1,5a] pyridine derivative” (Cephalon, Inc., priority 2010, dated 2015):
# Like-named read-outs stand apart in the source and are kept apart here.
# What was measured:
# pSTAT3 = experiment: Activity against pSTAT3 (another experiment)
# [1] = Compound quantification (PK) in plasma, paw and spleen of CAIA mice; assay type: in vivo; conditions: DBA/1, mouse, oral, day 20, mean±SEM, N=3; for concentration at 2 h: 2 hrs post-administration; for concentration at 6 h: 6 hrs post-administration
# Description: FIG. 2B: Depicts the results of a PK (pharmacokinetic) study of Compound A, 55 mg/kg, 30 mg/kg and 10 mg/kg, p.o., s.i.d. (once daily), in the plasma, paw and spleen of treated mice, N=3 mice per group tested. The data shown in the figure represents the mean±SEM (standard error of the mean).
# While the level of Compound A in the target tissue, i.e., the paw, was relatively low, the levels of Compound A were relatively constant between the two time points for the 55 mg/kg treatment group. […] The data (mean±SEM, N=3) represented in FIG. 2B is tabulated below:
# Plasma and protein extraction from paw and spleen samples were submitted for quantitative analysis to determine the respective compound concentrations. Blood samples were collected into heparinized tubes and placed on wet ice until centrifuged (16,000×g, 5 minutes) to separate the plasma. Supernatant was collected and stored at −20° C. pending analysis. At the time of analysis, two volumes of cold acetonitrile containing an internal standard (alprenolol) were added to each sample which were then vortexed and centrifuged. The supernatants were removed, placed into an auto-sampler vial and the amount of compound present in the samples was analyzed by liquid chromatograph/mass spectrometry (LC-MS-MS). The concentration of compound in the samples was quantified against a mouse plasma standard curve made via serial dilution in a concentration range from 5 to 20,000 ng/mL. Samples containing concentrations greater than 10% above the top of the standard curve were diluted 1:10 with acetonitrile. The limit of detection for plasma, paw and spleen were <10 ng/ml.
# serum and paw cytokines = experiment: CIA model, serum and paw cytokines (Luminex bead assay); assay type: in vivo, female DBA/1 mice
# Description: (§1) Female DBA/1 mice were injected with purified collagen type II in CFA i.d. (intradermal), then boosted with collagen type II in IFA, s.c., (subcutaneous) on day 21 followed by a day 28 LPS injection i.p. to induce arthritis (CIA). Mice that scored a ‘1’ or better for each paw were considered arthritic and entered into the study. Treatments started after 7-10 days of arthritis induction. Compound A was provided orally, b.i.d., for all doses tested; Dex was administered i.p. at 1.5 mg/kg, three times a week; and vehicle (PEG400+1% DMSO) was provided orally, b.i.d.
# FIGS. 4C-1 through 4C-4: Depict concentrations of various serum cytokines (IL-12, IL-2, IL-10 and TNFα) in arthritic paws in each treatment group.
# Frozen plasma at −80° C. was thawed on ice, vortexed, then centrifuged for 10 minutes to remove debris and aggregates. A total of 25-50 μl of serum was used for Luminex® assays following the manufacturer's instruction. Ten different mouse cytokines were measured using the mouse cytokine 10-plex bead kit (Invitrogen, Carlsbad, Calif.). […]
# A more detailed description of this method can be found described elsewhere (Lu et al, 2010, submitted for publication). […] Protein concentration was measured using a BCA protein assay (Pierce, Rockford, Ill.) and adjusted to 3 mg/ml. […]
# phospho-STAT3 [2] = experiment: CIA model, paw phospho-STAT3; assay type: in vivo, female DBA/1 mice
# Description: as §1
# FIG. 4B: Depicts Phospho-STAT3 expression in arthritic paws for each treatment group.
# A more detailed description of this method can be found described elsewhere (Lu et al, 2010, submitted for publication). Briefly, the front (including carpus) and back (including tarsus) right paws were collected and frozen in dry-ice cooled isopentane and stored at −80° C. until use. The paws were cut to 2 mm×2 mm segments and kept on dry-ice in round bottom polypropylene tubes. […] Protein concentration was measured using a BCA protein assay (Pierce, Rockford, Ill.) and adjusted to 3 mg/ml. […]
# [3] = tested on: pro-inflammatory cytokines in paw extracts; experiment: CAIA model, paw cytokines (Luminex bead assay); assay type: in vivo, female DBA/1 mice
# Description: DBA/1 female mice were injected i.v. with purified anti-collagen type II antibodies, then given 25 μg of LPS i.p. three days later to induce arthritis by day 5. Mice that met the arthritis criteria score of 1 per paw were entered into the study.
# The cytokines were measured using known procedures [32].
# (§2) Briefly, the front (including carpus) and back (including tarsus) right paws were collected and frozen in dry-ice cooled isopentane and stored at −80° C. until use. The paws were cut to 2 mm×2 mm segments and kept on dry-ice in round bottom polypropylene tubes. Seven hundred microliters tissue extraction buffer containing protease inhibitor cocktail (Calbiochem, San Diego, Calif.) and Halt phosphatase inhibitor cocktail (Thermo Scientific, Rockford, Ill.) or Roche phosphatase inhibitor cocktail (Roche, Indianapolis, Ind.) in tissue extraction reagent I (Invitrogen, Carlesbad, Calif.) were added to each sample. Samples were homogenized frozen using a PT 10-35 Polytron homogenizer. After homogenization, samples were centrifuged at 4° C. for 2000×g for 10 minutes and supernatants re-centrifuged at 4° C. at maximum speed, 14,000×g, for 15 minutes. Supernatants were carefully removed to avoid picking up the top layer of lipids/adipose debris. Protein concentration was measured using a BCA protein assay (Pierce, Rockford, Ill.) and adjusted to 3 mg/ml. A minimum of 25 μl of this extraction was used in the above described protocol using the mouse cytokine 10-plex bead kit (Invitrogen, Carlsbad, Calif.) or phosphorylated STAT1, 3, 5a/b, 3-plex kit (Invitrogen, Carlsbad, Calif.).
# human TYK2 = human TYK2 (Homo sapiens, UniProt P29597); experiment: TYK2 kinase enzyme assay, TRF detection; assay type: biochemical; conditions: relative to JAK2
# Description: The kinase activity of baculovirus-expressed human JAK kinases (JAK1, JAK2, JAK3 or TYK2) was measured using the time-resolved fluorescence (TRF) detection system as described elsewhere [17]. Each 96-well Costar high binding plate (Corning, Corning, N.Y.) was coated with 100 μl/well of 10 μg/ml neutravidin (Pierce Biotechnology, Rockford, Ill.) in TBS at 37° C. for 2 h, followed by 100 μl/well of 1 μg/ml 15-mer peptide substrate (biotinyl-amino-hexanoyl-[sequence]-amide, Infinity Biotech Research and Resource, Aston, Pa.) at 37° C. for 1 h. The kinase assay mixture (total volume=100 μl/well) consisting of 20 mM HEPES (pH 7.2), ATP (Km level for each kinase), 1 mM MnCl2, 0.1% BSA, and test Compound (diluted in DMSO; 2.5% DMSO final in assay) was added to the assay plate. The concentrations of ATP used were as follows: 0.2 μM ATP for JAK1, JAK2 and TYK2; 0.1 μM ATP for JAK3. Enzyme was added and the reaction was allowed to proceed for 20 min at RT. […] Plates were agitated for 10 min and the fluorescence of the resulting solution measured using the PerkinElmer EnVision® 2102 or 2104 multi-label plate reader. IC50 values were determined using the 4-parameter logistic model in XLFit® 4 (IDBS, Ltd., Guildford, UK).
# phospho-STAT3 [4] = experiment: CAIA model, paw phospho-STAT3 (Luminex bead assay); assay type: in vivo, female DBA/1 mice; conditions: for reduction in paw pSTAT3 compared with Dex: within 24 hours of treatment (day 6-7); for phospho-STAT3 levels in the paw: 55 mg/kg
# Description: DBA/1 female mice were injected i.v. with purified anti-collagen type II antibodies, then given 25 μg of LPS i.p. three days later to induce arthritis by day 5. Mice that met the arthritis criteria score of 1 per paw were entered into the study. Compound A was provided orally, b.i.d., for all doses tested; Dex was provided at 1.5 mg/kg three times a week, i.p.; and vehicle (PEG400+1% DMSO) was provided orally.
# The graphed data was generated using Luminex® bead kits, concentration in units per ml per 3 mg of total protein as determined by the BSA assay. The graphed data represents mean±SEM, statistics were performed using 2-way ANOVA analysis.
# To investigate the effect of Compound A on levels of phosphorylated STATs and cytokines in the paws of treated mice, a method was developed whereby synovial fluid and cellular joint extracts could be obtained from the paws and ankles of diseased animals for analysis using multiplex bead arrays [32]. […] Consequently, multiplex analysis was used as the primary method of measuring phosphorylated STATs for all experiments described herein.
# as §2
# [5] = paw, 10 mg/kg p.o., read-out: concentration in paw
# [6] = paw, 30 mg/kg p.o., read-out: concentration in paw
# [7] = paw, 55 mg/kg p.o., read-out: concentration in paw
# [8] = plasma, 10 mg/kg p.o., read-out: concentration in plasma
# [9] = plasma, 30 mg/kg p.o., read-out: concentration in plasma
# [10] = plasma, 55 mg/kg p.o., read-out: concentration in plasma
# [11] = spleen, 10 mg/kg p.o., read-out: concentration in spleen
# [12] = spleen, 30 mg/kg p.o., read-out: concentration in spleen
# [13] = spleen, 55 mg/kg p.o., read-out: concentration in spleen
# Sequence of human TYK2 (P29597 whole entry): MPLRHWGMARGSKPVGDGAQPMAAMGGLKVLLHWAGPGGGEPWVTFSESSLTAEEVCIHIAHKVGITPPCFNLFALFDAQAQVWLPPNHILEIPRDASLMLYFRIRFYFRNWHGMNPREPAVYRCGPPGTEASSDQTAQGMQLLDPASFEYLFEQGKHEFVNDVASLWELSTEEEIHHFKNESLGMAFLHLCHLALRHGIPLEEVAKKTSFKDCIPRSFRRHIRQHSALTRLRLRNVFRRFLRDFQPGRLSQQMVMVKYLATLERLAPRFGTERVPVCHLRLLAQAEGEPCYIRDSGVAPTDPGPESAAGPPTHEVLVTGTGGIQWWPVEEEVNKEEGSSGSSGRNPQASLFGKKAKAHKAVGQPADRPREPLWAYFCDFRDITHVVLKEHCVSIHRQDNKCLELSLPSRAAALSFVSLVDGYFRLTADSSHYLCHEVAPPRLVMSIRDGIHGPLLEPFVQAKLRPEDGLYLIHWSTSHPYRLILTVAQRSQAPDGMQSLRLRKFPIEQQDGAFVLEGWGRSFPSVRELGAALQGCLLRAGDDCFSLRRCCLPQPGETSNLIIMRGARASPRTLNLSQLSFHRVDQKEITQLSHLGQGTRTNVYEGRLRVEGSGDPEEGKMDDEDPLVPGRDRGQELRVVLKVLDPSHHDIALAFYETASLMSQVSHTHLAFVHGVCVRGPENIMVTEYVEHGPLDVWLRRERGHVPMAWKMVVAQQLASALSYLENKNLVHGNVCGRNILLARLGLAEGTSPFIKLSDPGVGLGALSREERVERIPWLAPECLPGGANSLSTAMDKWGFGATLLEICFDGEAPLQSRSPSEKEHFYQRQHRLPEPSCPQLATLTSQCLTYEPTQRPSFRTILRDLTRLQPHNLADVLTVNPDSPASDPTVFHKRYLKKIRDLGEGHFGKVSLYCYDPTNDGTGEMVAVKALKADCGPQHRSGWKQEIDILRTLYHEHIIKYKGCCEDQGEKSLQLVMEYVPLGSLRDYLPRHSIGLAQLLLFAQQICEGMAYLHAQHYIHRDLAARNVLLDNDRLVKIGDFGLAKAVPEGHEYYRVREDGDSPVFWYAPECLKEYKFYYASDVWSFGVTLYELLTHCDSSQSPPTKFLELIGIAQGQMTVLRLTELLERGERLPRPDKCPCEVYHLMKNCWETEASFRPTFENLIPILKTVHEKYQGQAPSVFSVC
smiles,measurement,setting,value
"CN1CCN(c2cccc(Nc3nc4c(-c5ccc(S(C)(=O)=O)cc5)cccn4n3)c2)CC1 [Compound A, [8-(4-Methanesulfonyl-phenyl)-[1,2,4]triazolo[1,5-a]pyridin-2-yl]-[3-(4-methyl-piperazin-1-yl)-phenyl]-amine]",activity against pSTAT3,pSTAT3,exhibited some activity against pSTAT3
same,concentration at 2 h,[1]; [5],214 ± 12.4 ng/mL
same,concentration at 6 h,[1]; [5],172 ± 48.7 ng/mL
same,concentration at 2 h,[1]; [6],508 ± 213 ng/mL
same,concentration at 6 h,[1]; [6],376 ± 84.7 ng/mL
same,concentration at 2 h,[1]; [7],660 ± 81.1 ng/mL
same,concentration at 6 h,[1]; [7],472 ± 74.3 ng/mL
same,concentration at 2 h,[1]; [8],1160 ± 48.1 ng/mL
same,concentration at 6 h,[1]; [8],433 ± 56.7 ng/mL
same,concentration at 2 h,[1]; [9],2040 ± 693 ng/mL
same,concentration at 6 h,[1]; [9],1310 ± 258 ng/mL
same,concentration at 2 h,[1]; [10],3160 ± 456 ng/mL
same,concentration at 6 h,[1]; [10],1480 ± 138 ng/mL
same,concentration at 2 h,[1]; [11],673 ± 102 ng/mL
same,concentration at 6 h,[1]; [11],273 ± 50.4 ng/mL
same,concentration at 2 h,[1]; [12],1330 ± 113 ng/mL
same,concentration at 6 h,[1]; [12],1170 ± 395 ng/mL
same,concentration at 2 h,[1]; [13],3900 ± 427 ng/mL
same,concentration at 6 h,[1]; [13],2350 ± 433 ng/mL
same,"serum and paw cytokines (IL-12, IL-2, IL-10, TNFα, IL-4) and spleen IL-12",serum and paw cytokines; all three doses,decrease in several serum and paw cytokines
same,serum IL-12 level,"serum and paw cytokines; all three doses (30, 55, 100 mg/kg)",significantly decrease the level of IL-12 comparable to that observed with Dex
same,paw pSTAT3,"phospho-STAT3 [2]; 55 mg/kg, p<0.01",significantly reduced
same,paw pSTAT3,"phospho-STAT3 [2]; 100 mg/kg, p<0.001",significantly reduced
same,paw IL-6 concentration,"[3]; CAIA experiment, 4 hours post dosing, p<0.05",reduction in paw IL-6
same,level of pro-inflammatory cytokines in paw extracts,"[3]; CAIA, 55 mg/kg",significantly reduced the level of several of the cytokines
same,"cytokine suppression over the study (IL-1β, IL-6, TNFα, IL-12)","[3]; CAIA, 55 mg/kg, p<0.01 vs vehicle",lowered and sustained cytokine suppression for the remainder of the study
same,level of pro-inflammatory cytokines in paw extracts,"[3]; CAIA, 100 mg/kg",significantly reduced the level of several of the cytokines
same,dose dependence of cytokine reduction in paw extracts,"[3]; CAIA, 30, 55 and 100 mg/kg, especially GM-CSF, IL-12, IL-2, IL-4",Dose-dependent reductions were observed for all cytokines tested
same,paw cytokine expression compared with Dex group,"[3]; CAIA, several of the cytokines tested, p<0.05 vs vehicle",significantly decreased cytokine expression below the levels observed in the Dex treatment group
same,selectivity against TYK2,human TYK2,> 800 fold
same,reduction in paw pSTAT3 compared with Dex,"phospho-STAT3 [4]; 30 mg/kg b.i.d., p<0.01 vs vehicle",significantly greater than that of Dex
same,reduction in paw pSTAT3 compared with Dex,"phospho-STAT3 [4]; 55 mg/kg b.i.d., p<0.001 vs vehicle",significantly greater than that of Dex
same,phospho-STAT3 levels in the paw,phospho-STAT3 [4]; 2 hours after administration,nearly abolished
same,phospho-STAT3 levels in the paw,phospho-STAT3 [4]; 6 hours post-administration,only slowly began to recover
same,"paw pSTAT3 expression, remainder of the experiment",phospho-STAT3 [4]; b.i.d. treatment,reduced pSTAT3 expression to the lower limits of the assay
